Laboratory results as given in ChEMBL document CHEMBL1909046, “DrugMatrix in vitro pharmacology data”.
pIC50, pKi: −log10 of the molar value.

Tests used:
Substance-K receptor = target: T1, Substance-K receptor (Homo sapiens, UniProt P21452); assay type: cell membranes, CHO, Membrane; also: in other assays of this panel Not Active means under 50% inhibition at 10 µM
T1 sequence (P21452 whole entry): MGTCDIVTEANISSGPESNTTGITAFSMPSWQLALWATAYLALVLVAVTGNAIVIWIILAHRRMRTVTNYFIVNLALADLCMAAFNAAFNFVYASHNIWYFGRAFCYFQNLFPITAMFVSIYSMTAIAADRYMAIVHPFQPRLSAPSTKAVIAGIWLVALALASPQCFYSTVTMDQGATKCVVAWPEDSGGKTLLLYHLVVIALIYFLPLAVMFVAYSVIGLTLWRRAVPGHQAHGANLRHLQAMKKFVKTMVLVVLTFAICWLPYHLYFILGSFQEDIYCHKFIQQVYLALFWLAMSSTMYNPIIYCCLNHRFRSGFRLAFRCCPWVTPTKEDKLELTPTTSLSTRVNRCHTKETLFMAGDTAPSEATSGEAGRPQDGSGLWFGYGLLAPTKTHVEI

Thromboxane-A synthase = target: T2, Thromboxane-A synthase (Homo sapiens, UniProt P24557); experiment: biochemical; assay type: tissue-based, Platelet;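 also: enzyme inhibition assay with PGH2 supplied as substrate; in other assays of this panel Not Active means under 50% inhibition at 10 µM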
T2 sequence (P24557 whole entry): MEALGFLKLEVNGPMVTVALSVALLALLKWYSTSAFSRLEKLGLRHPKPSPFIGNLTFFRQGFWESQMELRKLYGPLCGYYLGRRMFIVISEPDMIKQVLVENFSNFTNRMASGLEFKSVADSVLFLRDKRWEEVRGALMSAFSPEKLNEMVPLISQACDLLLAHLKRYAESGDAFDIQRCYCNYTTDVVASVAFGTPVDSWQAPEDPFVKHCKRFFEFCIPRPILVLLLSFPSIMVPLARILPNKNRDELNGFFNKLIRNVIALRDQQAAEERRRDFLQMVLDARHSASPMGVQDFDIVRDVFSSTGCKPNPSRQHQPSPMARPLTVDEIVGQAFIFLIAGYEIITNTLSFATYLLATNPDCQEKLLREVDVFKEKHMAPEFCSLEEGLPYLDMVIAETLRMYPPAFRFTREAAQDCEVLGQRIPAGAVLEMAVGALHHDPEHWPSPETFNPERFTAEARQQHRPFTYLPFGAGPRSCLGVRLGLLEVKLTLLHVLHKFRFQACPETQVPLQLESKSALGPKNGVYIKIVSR

Vasopressin V1a receptor = Vasopressin V1a receptor (Homo sapiens, UniProt P37288); assay type: cell membranes, Membrane; settings: hek293; also: in other assays of this panel Not Active means under 50% inhibition at 10 µM
Chain of Vasopressin V1a receptor (P37288 whole entry): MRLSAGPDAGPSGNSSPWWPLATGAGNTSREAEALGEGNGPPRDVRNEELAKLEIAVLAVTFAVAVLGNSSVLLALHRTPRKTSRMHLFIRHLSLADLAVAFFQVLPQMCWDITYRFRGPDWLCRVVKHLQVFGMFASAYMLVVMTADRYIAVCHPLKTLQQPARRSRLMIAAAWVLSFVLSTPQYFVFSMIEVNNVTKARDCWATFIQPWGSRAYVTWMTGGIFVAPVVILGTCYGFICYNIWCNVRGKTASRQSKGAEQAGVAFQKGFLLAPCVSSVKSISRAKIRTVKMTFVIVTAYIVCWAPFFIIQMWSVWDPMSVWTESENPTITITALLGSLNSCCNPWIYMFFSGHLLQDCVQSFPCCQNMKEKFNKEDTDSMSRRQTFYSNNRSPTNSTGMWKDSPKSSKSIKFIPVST

[1] = target: T3, C-X-C chemokine receptor type 2 (Homo sapiens, UniProt P25025); assay type: cell membranes, Membrane; settings: cho-k1; also: in other assays of this panel Not Active means under 50% inhibition at 10 µM
T3 sequence (P25025 whole entry): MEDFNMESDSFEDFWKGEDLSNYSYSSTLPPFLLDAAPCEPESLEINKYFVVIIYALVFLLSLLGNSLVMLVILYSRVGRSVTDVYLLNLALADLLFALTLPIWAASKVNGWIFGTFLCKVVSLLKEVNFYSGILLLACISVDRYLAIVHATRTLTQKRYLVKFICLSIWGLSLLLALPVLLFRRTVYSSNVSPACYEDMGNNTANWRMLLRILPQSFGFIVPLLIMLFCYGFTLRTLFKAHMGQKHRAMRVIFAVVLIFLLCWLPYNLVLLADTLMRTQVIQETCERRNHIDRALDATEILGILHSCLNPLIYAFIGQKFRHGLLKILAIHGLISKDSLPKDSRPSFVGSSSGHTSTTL

Melanocortin receptor 3 = Melanocortin receptor 3 (Homo sapiens, UniProt P41968); assay type: cell membranes, HEK293, Membrane; settings: hek293; also: in other assays of this panel Not Active means under 50% inhibition at 10 µM
Chain of Melanocortin receptor 3 (P41968 whole entry): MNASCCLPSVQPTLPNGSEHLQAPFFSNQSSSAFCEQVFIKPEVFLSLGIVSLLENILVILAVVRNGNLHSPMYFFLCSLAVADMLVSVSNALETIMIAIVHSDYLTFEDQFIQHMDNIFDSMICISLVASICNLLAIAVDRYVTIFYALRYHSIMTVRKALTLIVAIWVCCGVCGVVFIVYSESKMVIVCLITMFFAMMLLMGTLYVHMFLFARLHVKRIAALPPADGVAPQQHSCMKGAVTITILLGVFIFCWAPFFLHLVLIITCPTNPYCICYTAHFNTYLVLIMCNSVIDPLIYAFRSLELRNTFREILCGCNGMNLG

[2] = target: T4, Nitric oxide synthase, inducible (Mus musculus, UniProt P29477); design: species or system Escherichia coli
T4 sequence (P29477 whole entry): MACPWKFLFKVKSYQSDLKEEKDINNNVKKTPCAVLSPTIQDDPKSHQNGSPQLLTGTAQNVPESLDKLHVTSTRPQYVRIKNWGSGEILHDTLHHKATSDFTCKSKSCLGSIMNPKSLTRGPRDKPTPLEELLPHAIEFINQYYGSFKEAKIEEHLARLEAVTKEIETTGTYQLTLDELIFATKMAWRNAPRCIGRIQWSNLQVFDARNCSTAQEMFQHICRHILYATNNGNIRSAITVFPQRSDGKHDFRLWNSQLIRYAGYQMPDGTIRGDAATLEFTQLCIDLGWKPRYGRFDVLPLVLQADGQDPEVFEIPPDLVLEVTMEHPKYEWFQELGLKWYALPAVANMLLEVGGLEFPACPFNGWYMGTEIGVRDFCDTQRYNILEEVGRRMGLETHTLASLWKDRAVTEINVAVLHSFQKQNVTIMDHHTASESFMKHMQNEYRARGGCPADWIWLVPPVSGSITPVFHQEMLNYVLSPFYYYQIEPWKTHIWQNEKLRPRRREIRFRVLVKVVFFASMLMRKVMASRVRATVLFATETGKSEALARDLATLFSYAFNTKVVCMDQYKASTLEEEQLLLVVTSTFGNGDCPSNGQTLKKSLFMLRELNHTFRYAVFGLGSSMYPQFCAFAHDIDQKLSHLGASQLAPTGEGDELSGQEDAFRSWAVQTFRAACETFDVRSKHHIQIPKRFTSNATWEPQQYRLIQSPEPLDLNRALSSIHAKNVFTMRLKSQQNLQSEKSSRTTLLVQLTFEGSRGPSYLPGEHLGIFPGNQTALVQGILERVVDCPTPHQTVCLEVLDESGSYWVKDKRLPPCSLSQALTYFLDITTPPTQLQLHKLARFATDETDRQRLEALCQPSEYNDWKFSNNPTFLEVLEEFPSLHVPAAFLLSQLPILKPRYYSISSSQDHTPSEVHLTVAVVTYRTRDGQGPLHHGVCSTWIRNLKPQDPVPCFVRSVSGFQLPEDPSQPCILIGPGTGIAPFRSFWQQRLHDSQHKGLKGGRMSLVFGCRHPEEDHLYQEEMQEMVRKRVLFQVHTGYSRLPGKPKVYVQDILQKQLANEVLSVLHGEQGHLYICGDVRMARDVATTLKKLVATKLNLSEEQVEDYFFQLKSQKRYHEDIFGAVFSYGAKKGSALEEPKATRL

[3] = DRUGMATRIX: Purinergic P2X radioligand binding (ligand: [3H] alpha, beta-Methylene-ATP); assay type: cell membranes, Oryctolagus cuniculus, New Zealand albino, Urinary bladder, Membrane; settings: Not Active = under 50% inhibition at 10 µM

Compound | IC50 (Substance-K receptor; cho) | IC50 (Thromboxane-A synthase; platelet) | IC50 (Vasopressin V1a receptor) | IC50 [1] | IC50 (Melanocortin receptor 3) | IC50 [2] | IC50 [3] | Ki [3] | pIC50 (Thromboxane-A synthase; read-out: IC50) | Ki (Substance-K receptor; cho) | Ki (Thromboxane-A synthase; platelet) | Ki (Vasopressin V1a receptor) | Ki [1] | Ki (Melanocortin receptor 3) | Ki [2] | pIC50 (Substance-K receptor; read-out: IC50) | pKi (Substance-K receptor; read-out: Ki)
COCCc1ccc(OCC(O)CNC(C)C)cc1 (stereo not drawn) [METOPROLOL] | Not Active | Not Active | Not Active | Not Active | Not Active | Not Active | Not Active | Not Active | – | – | – | – | – | – | – | – | –
COc1cc2nc(N3CCN(C(=O)C4COc5ccccc5O4)CC3)nc(N)c2cc1OC (stereo not drawn) [DOXAZOSIN] | Not Active | Not Active | Not Active | Not Active | Not Active | Not Active | Not Active | Not Active | – | – | – | – | – | – | – | – | –
NCCCCCC(=O)O [AMINOCAPROIC ACID] | Not Active | Not Active | Not Active | Not Active | Not Active | Not Active | Not Active | Not Active | – | – | – | – | – | – | – | – | –
CC(C)(C)NCC(O)c1cc(Cl)c(N)c(Cl)c1 (stereo not drawn) [CLENBUTEROL] | Not Active | Not Active | Not Active | Not Active | Not Active | Not Active | Not Active | Not Active | – | – | – | – | – | – | – | – | –
CCCN1C[C@H](CSC)C[C@@H]2c3cccc4[nH]cc(c34)C[C@H]21 [PERGOLIDE] | Not Active | Not Active | Not Active | Not Active | Not Active | Not Active | Not Active | Not Active | – | – | – | – | – | – | – | – | –
CN(C)C(=O)Oc1cc(OC(=O)N(C)C)cc(C(O)CNC(C)(C)C)c1 (stereo not drawn) [BAMBUTEROL] | Not Active | Not Active | Not Active | Not Active | Not Active | Not Active | Not Active | Not Active | – | – | – | – | – | – | – | – | –
c1ccc(Nc2ccc(Nc3ccccc3)cc2)cc1 | Not Active | Not Active | Not Active | Not Active | Not Active | Not Active | Not Active | Not Active | – | – | – | – | – | – | – | – | –
Cc1cc(C(C#N)c2ccc(Cl)cc2)c(Cl)cc1NC(=O)c1cc(I)cc(I)c1O (stereo not drawn) [CLOSANTEL] | Not Active | – | Not Active | Not Active | Not Active | Not Active | Not Active | Not Active | 7.19 | – | – | – | – | – | – | – | –
Cc1ccc2cc3c(ccc4ccccc43)c3c2c1CC3 [3-METHYLCHOLANTHRENE] | Not Active | Not Active | Not Active | Not Active | Not Active | Not Active | Not Active | Not Active | – | – | – | – | – | – | – | – | –
Nc1nc2c(ncn2CCC(CO)CO)c(=O)[nH]1 [PENCICLOVIR] | Not Active | Not Active | Not Active | Not Active | Not Active | Not Active | Not Active | Not Active | – | – | – | – | – | – | – | – | –
CC1Cc2ccccc2N1NC(=O)c1ccc(Cl)c(S(N)(=O)=O)c1 (stereo not drawn) [INDAPAMIDE] | Not Active | Not Active | Not Active | Not Active | Not Active | Not Active | Not Active | Not Active | – | – | – | – | – | – | – | – | –
Cc1ccc(-c2cc(C(F)(F)F)nn2-c2ccc(S(N)(=O)=O)cc2)cc1 [CELECOXIB] | Not Active | Not Active | Not Active | Not Active | Not Active | Not Active | Not Active | Not Active | – | – | – | – | – | – | – | – | –
CCCCc1nc(Cl)c(CO)n1Cc1ccc(-c2ccccc2-c2nnn[nH]2)cc1 [LOSARTAN] | Not Active | Not Active | Not Active | Not Active | Not Active | Not Active | Not Active | Not Active | – | – | – | – | – | – | – | – | –
CC(NC(C)(C)C)C(=O)c1cccc(Cl)c1 (stereo not drawn) [BUPROPION] | Not Active | Not Active | Not Active | Not Active | Not Active | Not Active | Not Active | Not Active | – | – | – | – | – | – | – | – | –
COc1cc2c3cc1Oc1cc(ccc1O)C[C@@H]1c4c(cc(OC)c(O)c4Oc4ccc(cc4)C[C@@H]3N(C)CC2)CC[N+]1(C)C.[Cl-] | Not Active | Not Active | Not Active | Not Active | Not Active | Not Active | Not Active | Not Active | – | – | – | – | – | – | – | – | –
CCC(C)n1ncn(-c2ccc(N3CCN(c4ccc(OCC5COC(Cn6cncn6)(c6ccc(Cl)cc6Cl)O5)cc4)CC3)cc2)c1=O (stereo not drawn) [ITRACONAZOLE] | Not Active | Not Active | Not Active | Not Active | Not Active | Not Active | Not Active | Not Active | – | – | – | – | – | – | – | – | –
CADMIUM ACETATE | Not Active | Not Active | Not Active | Not Active | Not Active | Not Active | Not Active | Not Active | – | Not Active | Not Active | Not Active | Not Active | Not Active | Not Active | – | –
C[C@H]1O[C@@H](O[C@H]2[C@@H](O)C[C@H](O[C@H]3[C@@H](O)C[C@H](O[C@H]4CC[C@@]5(C)[C@H](CC[C@@H]6[C@@H]5C[C@@H](O)[C@]5(C)[C@@H](C7=CC(=O)OC7)CC[C@]65O)C4)O[C@@H]3C)O[C@@H]2C)C[C@H](O)[C@@H]1O [DIGOXIN] | Not Active | Not Active | Not Active | Not Active | Not Active | Not Active | Not Active | Not Active | – | – | – | – | – | – | – | – | –
CN(C)CCCN1c2ccccc2Sc2ccc(Cl)cc21 [CHLORPROMAZINE] | – | Not Active | Not Active | Not Active | – | Not Active | Not Active | Not Active | – | – | – | – | – | – | – | 4.57 | 5.04
